From ChEMBL document CHEMBL3046607, “Synthesis and Herbicidal Activity of New 1-Alkyl-3-aryloxypyrazole-4-carboxamide Derivatives” (J Pestic Sci, 2004)
Calls of active or inactive are those of the source. No cut-off for these calls is given here.

Columns and labels:
[1] = test system: Pontederia vaginalis; test: Pre-emergence herbicidal activity against Monochoria vaginalis assessed as bleaching of stem/leaf parts; type: functional, organism-based
[2] = test system: Echinochloa oryzicola; test: Pre-emergence herbicidal activity against Echinochloa oryzicola at 33 g a.i/ha measured after 14 days; type: functional, organism-based
[3] = test system: Elatine triandra; test: Post-emergence herbicidal activity against Elatine triandra assessed as bleaching of stem/leaf parts; type: functional, organism-based; note: test concentration or dose not given here
[4] = test system: Elatine triandra; test: Pre-emergence herbicidal activity against Elatine triandra at 33 g a.i/ha measured after 14 days; type: functional, organism-based
[5] = test system: Cyperus difformis; test: Pre-emergence herbicidal activity against Cyperus difformis assessed as bleaching of stem/leaf parts; type: functional, organism-based
[6] = test system: Cyperus difformis; test: Post-emergence herbicidal activity against Cyperus difformis assessed as bleaching of stem/leaf parts; type: functional, organism-based; note: test concentration or dose not given here
[7] = test system: Ammannia multiflora; test: Pre-emergence herbicidal activity against Ammannia multiflora assessed as bleaching of stem/leaf parts; type: functional, organism-based
[8] = test system: Rotala indica; test: Post-emergence herbicidal activity against Rotala indica assessed as bleaching of stem/leaf parts; type: functional, organism-based
[9] = test system: Schoenoplectiella juncoides; test: Post-emergence herbicidal activity against Schoenoplectiella juncoides assessed as bleaching of stem/leaf parts; type: functional, organism-based; note: test concentration or dose not given here
[10] = test system: Ammannia multiflora; test: Pre-emergence herbicidal activity against Ammannia multiflora at 33 g a.i/ha measured after 14 days; type: functional, organism-based
[11] = test system: Lindernia procumbens; test: Pre-emergence herbicidal activity against Lindernia procumbens at 33 g a.i/ha measured after 14 days; type: functional, organism-based
[12] = test system: Schoenoplectiella juncoides; test: Pre-emergence herbicidal activity against Schoenoplectiella juncoides at 33 g a.i/ha measured after 14 days; type: functional, organism-based
[13] = test system: Elatine triandra; test: Pre-emergence herbicidal activity against Elatine triandra assessed as bleaching of stem/leaf parts; type: functional, organism-based
[14] = test system: Lindernia procumbens; test: Pre-emergence herbicidal activity against Lindernia procumbens assessed as bleaching of stem/leaf parts; type: functional, organism-based
[15] = test system: Rotala indica; test: Pre-emergence herbicidal activity against Rotala indica at 33 g a.i/ha measured after 14 days; type: functional, organism-based
[16] = test system: Pontederia vaginalis; test: Pre-emergence herbicidal activity against Monochoria vaginalis at 33 g a.i/ha measured after 14 days; type: functional, organism-based
[17] = test system: Pontederia vaginalis; test: Post-emergence herbicidal activity against Monochoria vaginalis assessed as bleaching of stem/leaf parts; type: functional, organism-based
[18] = test system: Lindernia procumbens; test: Post-emergence herbicidal activity against Lindernia procumbens assessed as bleaching of stem/leaf parts; type: functional, organism-based; note: test concentration or dose not given here
[19] = test system: Schoenoplectiella juncoides; test: Pre-emergence herbicidal activity against Schoenoplectiella juncoides assessed as bleaching of stem/leaf parts; type: functional, organism-based
[20] = test system: Echinochloa oryzicola; test: Pre-emergence herbicidal activity against Echinochloa oryzicola assessed as bleaching of stem/leaf parts; type: functional, organism-based
[21] = test system: Echinochloa oryzicola; test: Post-emergence herbicidal activity against Echinochloa oryzicola assessed as bleaching of stem/leaf parts; type: functional, organism-based
[22] = test system: Oryza sativa; test: Phytotoxicity against Oryza sativa cv. Koshihikari (rice) at 33 g a.i/ha measured after 14 days; type: organism-based; details: in vivo, 336 h
[23] = test system: Rotala indica; test: Pre-emergence herbicidal activity against Rotala indica assessed as bleaching of stem/leaf parts; type: functional, organism-based
[24] = test system: Ammannia multiflora; test: Post-emergence herbicidal activity against Ammannia multiflora assessed as bleaching of stem/leaf parts; type: functional, organism-based
[25] = test system: Cyperus difformis; test: Pre-emergence herbicidal activity against Cyperus difformis at 33 g a.i/ha measured after 14 days; type: functional, organism-based

Row | Compound | Activity [1] | Activity [2] | Activity [3] | Activity [4] | Activity [5] | Activity [6] | Activity [7] | Activity [8] | Activity [9] | Activity [10] | Activity [11] | Activity [12] | Activity [13] | Activity [14] | Activity [15] | Activity [16] | Activity [17] | Activity [18] | Activity [19] | Activity [20] | also measured
1 | Cc1ccccc1NC(=O)c1cn(C)nc1Oc1cccc(C(F)(F)F)c1 | Active | inactive | Active | Active | Active | Active | Active | Active | Active | Active | Active | inactive | Active | Active | Active | Active | Active | Active | Active | Active | Activity [21]: Active; Activity [22]: Non-toxic; Activity [23]: Active; Activity [24]: Active; Activity [25]: Active
2 | O=C(Nc1ccc(F)cc1F)c1cn(CCF)nc1Oc1cccc(C(F)(F)F)c1 | Active | inactive | Active | inactive | Active | Active | Active | Active | Active | inactive | inactive | inactive | Active | Active | inactive | inactive | Active | Active | Active | Active | Activity [21]: Active; Activity [22]: Non-toxic; Activity [23]: Active; Activity [24]: Active; Activity [25]: inactive
3 | Cn1cc(C(=O)Nc2ccc(F)c(F)c2F)c(Oc2cccc(C(F)(F)F)c2)n1 | Active | Active | Active | Active | Active | Active | Active | Active | Active | Active | Active | Active | Active | Active | Active | Active | Active | Active | Active | Active | Activity [21]: Active; Activity [22]: Non-toxic; Activity [23]: Active; Activity [24]: Active
4 | Cn1cc(C(=O)Nc2ccccc2Cl)c(Oc2cccc(C(F)(F)F)c2)n1 | Active | Active | Active | Active | Active | Active | Active | Active | Active | Active | Active | Active | Active | Active | Active | Active | Active | Active | Active | Active | Activity [21]: Active; Activity [22]: Non-toxic; Activity [23]: Active; Activity [24]: Active; Activity [25]: Active
5 | Cn1cc(C(=O)Nc2ccc(F)cc2)c(Oc2cccc(C(F)(F)F)c2)n1 | Active | Active | Active | Active | Active | Active | Active | Active | Active | Active | Active | inactive | Active | Active | Active | Active | Active | Active | Active | Active | Activity [21]: Active; Activity [22]: Non-toxic; Activity [23]: Active; Activity [24]: Active; Activity [25]: Active
6 | Cn1cc(C(=O)Nc2ccc(F)cc2Cl)c(Oc2cccc(C(F)(F)F)c2)n1 | Active | Active | Active | Active | Active | Active | Active | Active | Active | Active | Active | Active | Active | Active | Active | Active | Active | Active | Active | Active | Activity [21]: Active; Activity [22]: Non-toxic; Activity [23]: Active; Activity [24]: Active; Activity [25]: Active
7 | Cn1cc(C(=O)Nc2ccc(Cl)cc2Cl)c(Oc2cccc(C(F)(F)F)c2)n1 | Active | inactive | Active | Active | Active | Active | Active | Active | Active | Active | Active | inactive | Active | Active | Active | Active | Active | Active | Active | Active | Activity [21]: Active; Activity [22]: Non-toxic; Activity [23]: Active; Activity [24]: Active; Activity [25]: Active
8 | CCCn1cc(C(=O)Nc2ccc(F)cc2F)c(Oc2cccc(C(F)(F)F)c2)n1 | Active | inactive | Active | inactive | Active | Active | Active | Active | Active | inactive | inactive | inactive | Active | Active | inactive | inactive | Active | Active | Active | Active | Activity [21]: Active; Activity [22]: Non-toxic; Activity [23]: Active; Activity [24]: Active; Activity [25]: inactive
9 | Cn1cc(C(=O)Nc2ccccc2F)c(Oc2cccc(C(F)(F)F)c2)n1 | Active | Active | Active | Active | Active | Active | Active | Active | Active | Active | Active | inactive | Active | Active | Active | Active | Active | Active | Active | Active | Activity [21]: Active; Activity [22]: Non-toxic; Activity [23]: Active; Activity [24]: Active; Activity [25]: Active
10 | Cn1cc(C(=O)Nc2cccc(F)c2F)c(Oc2cccc(C(F)(F)F)c2)n1 | Active | inactive | Active | Active | Active | Active | Active | Active | Active | Active | Active | inactive | Active | Active | Active | Active | Active | Active | Active | Active | Activity [21]: Active; Activity [22]: Non-toxic; Activity [23]: Active; Activity [24]: Active; Activity [25]: Active
